Broadly, the IC50 is the concentration at which inhibition is half-maximal.

The values below come from patent publication US20030181441A1, “TACE INHIBITORS” (priority 1998, published 2003).

Assay type in all cases: biochemical
One assay deals with TACE (Homo sapiens, UniProt P78536). Briefly: Recombinant TNFα converting enzyme (TACE) activity, fluorescent quenched substrate. The settings on record: for MMP-1/TACE IC50 selectivity ratio: ratio of MMP-1 and TACE IC50 values. An excerpt:
Method for the Evaluation of Recombinant TNFα Converting Enzyme Activity.
Preparation of Recombinant TACE:
A DNA fragment coding for the signal sequence, prodomain and catalytic domain of TACE (amino acids […]), was amplified by polymerase chain reaction using a human lung cDNA library as a template. The amplified fragment was cloned into pFastBac vector. The DNA sequence of the insert was confirmed for both the strands. A bacmid prepared using pFastBac in E. coli DH10Bac was transfected into SF9 insect cells. The virus particles were amplified to P1, P2, P3 stages. The P3 virus was infected into both Sf9 and High Five insect cells and grown at 27° C. for 48 hours. The medium was collected and used for assays and further purification.
Preparation of Fluorescent Quenched Substrate:
A model peptidic TNF-α substrate (LY-LeucineAlanineGlutamineAlanineValine-ArginineSerine-SerineLysine(CMTR)-Arginine (LY=Lucifer Yellow; CMTR=5-carboxytetramethyl Rhodamine)) was prepared and the concentration estimated by absorbance at 560 nm (E560, 60,000 M-1CM-1) according to the method of Geoghegan, K F, “Improved method for converting an unmodified peptide to an energy-transfer substrate for a proteinase.” Bioconjugate Chem. 7, 385-391 (1995). This peptide encompasses the cleavage cite on pro-TNF which is cleaved in vivo by TACE.
The reaction, carried out in a 96 well plate (Dynatech), was comprised of 70 μl of buffer solution (25 mM Hepes-HCl, pH 7.5, plus 20 uM ZnCl2), 10 μl of 100 μM fluorescent quenched substrate, 10 μl of a DMSO (5%) solution of test compound, and an amount of r-TACE enzyme which will cause 50% cleavage in 60 minutes—in a total volume of 100 μl. The specificity of the enzyme cleavage at the amide bond between alanine and valine was verified by HPLC and mass spectrometry. Initial rates of cleavage were monitored by measuring the rate of increase in fluorescence at 530 nm (excitation at 409 nm) over 30 minutes. The experiment was controlled as follows: 1) for background fluorescence of substrate; 2) for fluorescence of fully cleaved substrate; 3) for fluorescence quenching or augmentation from solutions containing test compound.
The rates from the non-test compound containing “control” reactions were averaged to establish the 100% value. The rate of reaction in the presence of test compound was compared to that in the absence of compound, and tabulated as “percent of non-test compound containing control. The results were plotted as “% of control” vs. the log of compound concentration and a half-maximal point or IC50 value determined. The IC50 for the above assay is a measure of the inhibition of the TNF-α proteolytic activity of TACE. Blockage of binding of TNF-α to TACE as used herein is as described in U.S. Pat. No. 5,830,742, issued Nov. 3, 1998.

A further assay concerns the target T1, MMP-1 (Homo sapiens, UniProt P03956).
T1 sequence (P03956 100-469): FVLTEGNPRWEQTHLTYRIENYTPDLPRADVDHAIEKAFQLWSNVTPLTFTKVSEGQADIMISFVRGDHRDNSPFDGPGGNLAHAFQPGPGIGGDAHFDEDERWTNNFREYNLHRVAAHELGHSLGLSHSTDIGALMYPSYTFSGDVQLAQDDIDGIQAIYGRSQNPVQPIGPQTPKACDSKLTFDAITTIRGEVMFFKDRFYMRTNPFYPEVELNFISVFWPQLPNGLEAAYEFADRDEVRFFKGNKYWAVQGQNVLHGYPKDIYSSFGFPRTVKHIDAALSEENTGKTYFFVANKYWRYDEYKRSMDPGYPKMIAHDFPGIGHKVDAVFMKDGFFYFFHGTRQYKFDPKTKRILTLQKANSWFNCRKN
Briefly: Inhibition of Human Collagenase (MMP-1), fluorescence assay. Here is the method:
Inhibition of Human Collagenase (MMP-1)
Human recombinant collagenase is activated with trypsin using the following ratio: 10 μg trypsin per 100 μg of collagenase. The trypsin and collagenase are incubated at room temperature for 10 minutes then a five fold excess (50 μg/10 μg trypsin) of soybean trypsin inhibitor is added.
10 mM stock solutions of inhibitors are made up in dimethyl sulfoxide and then diluted using the following Scheme:
Twenty-five microliters of each concentration is then added in triplicate to appropriate wells of a 96 well microfluor plate. The final concentration of inhibitor will be a 1:4 dilution after addition of enzyme and substrate. Positive controls (enzyme, no inhibitor) are set up in wells D1-D6 and blanks (no enzyme, no inhibitors) are set in wells D7-D12.
Collagenase is diluted to 400 ng/ml and 25 μl is then added to appropriate wells of the microfluor plate. Final concentration of collagenase in the assay is 100 ng/ml.
Substrate (DNP-Pro-Cha-Gly-Cys(Me)-His-Ala-Lys(NMA)-NH2) is made as a 5 mM stock in dimethyl sulfoxide and then diluted to […] in assay buffer. The assay is initiated by the addition of 50 μl substrate per well of the microfluor plate to give a final concentration of […] Fluorescence readings (360 nm excitation, 460 nm emission) were taken at time 0 and then at 20 minute intervals. The assay is conducted at room temperature with a typical assay time of 3 hours.
Fluorescence vs time is then plotted for both the blank and collagenase containing samples (data from triplicate determinations is averaged). […] The zero time is used as a blank for each compound at each concentration and these values are subtracted from the 120 minute data. Data is plotted as inhibitor concentration vs % control (inhibitor fluorescence divided by fluorescence of collagenase alone×100). IC50's are determined from the concentration of inhibitor that gives a signal that is 50% of the control.
If IC50's are reported to be <0.03 μM then the inhibitors are assayed at concentrations of 0.3 μM, 0.03 μM, […].

In the next assay the target is MMP-13 (Homo sapiens, UniProt P45452). Briefly: Inhibition of MMP-13, fluorescence assay. As for the experimental part: Human recombinant MMP-13 is activated with 2 mM APMA (p-aminophenyl mercuric acetate) for 1.5 hours, at 37° C. and is diluted to […] in assay buffer (50 mM Tris, pH 7.5, 200 mM sodium chloride, 5 mM calcium chloride, 20 μM zinc chloride, 0.02% brij). Twenty-five microliters of diluted enzyme is added per well of a 96 well microfluor plate. The enzyme is then diluted in a 1:4 ratio in the assay by the addition of inhibitor and substrate to give a final concentration in the assay of […].
10 mM stock solutions of inhibitors are made up in dimethyl sulfoxide and then diluted in assay buffer as per the inhibitor dilution scheme for inhibition of human collagenase (MMP-1): Twenty-five microliters of each concentration is added in triplicate to the microfluor plate. The final concentrations in the assay are 30 μM, 3 μM, 0.3 μM, and 0.03 μM.
Substrate (Dnp-Pro-Cha-Gly-Cys(Me)-His-Ala-Lys(NMA)—NH2) is prepared as for inhibition of human collagenase (MMP-1) and […] is added to each well to give a final assay concentration of 10 μM. Fluorescence readings (360 nm excitation; 450 emission) are taken at time 0 and every 5 minutes for 1 hour.
Positive controls consist of enzyme and substrate with no inhibitor and blanks consist of substrate only.
IC50's are determined as per inhibition of human collagenase (MMP-1). If IC50's are reported to be less than 0.03 μM, inhibitors are then assayed at final concentrations of 0.3 μM, 0.03 μM, 0.003 μM and 0.0003 μM.

Sequence of TACE (P78536 223-474): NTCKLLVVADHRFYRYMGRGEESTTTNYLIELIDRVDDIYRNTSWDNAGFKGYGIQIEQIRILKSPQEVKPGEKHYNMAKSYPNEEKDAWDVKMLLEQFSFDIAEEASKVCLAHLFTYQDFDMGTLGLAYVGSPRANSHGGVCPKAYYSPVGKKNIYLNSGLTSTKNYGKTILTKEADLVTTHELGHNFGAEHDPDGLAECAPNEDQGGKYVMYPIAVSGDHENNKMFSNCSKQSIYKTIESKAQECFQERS

`C[C@@H]1O[C@@H](C)CN(S(=O)(=O)c2ccc(OCc3ccncc3)cc2)[C@H]1C(=O)NO`: the figures for the IC50 on TACE, against MMP-1 and on MMP-13 were 0.012 µM, 2 µM and 0.006 µM, respectively. In addition, at TACE, the “MMP-1/TACE IC50 selectivity ratio” value is 167.
As for `Cc1ccc(C)c(COc2ccc(S(=O)(=O)N3C[C@H](C)O[C@@H](C)[C@@H]3C(=O)NO)cc2)c1`, the IC50 on TACE was found to be 0.01 µM; on MMP-1, 3.5 µM; against MMP-13 it was 0.088 µM. Also, on TACE, the “MMP-1/TACE IC50 selectivity ratio” value is given as 350.
For the compound `CC1(C)[C@H](C(=O)NO)N(S(=O)(=O)c2ccc(OCc3ccc(F)cc3)cc2)CC[S+]1[O-]` (some centres unmarked), the values for the IC50 on TACE, on MMP-1 and at MMP-13 were 0.0074 µM, 0.345 µM and 0.005 µM, respectively. The “MMP-1/TACE IC50 selectivity ratio” value at TACE was 46.6.
`CC1(C)[C@H](C(=O)NO)N(S(=O)(=O)c2ccc(OCc3ccc(F)cc3)cc2)CCS1(=O)=O`: the IC50 at TACE turned out to be 0.0072 µM; at MMP-1, 0.305 µM; on MMP-13, 0.0014 µM. In addition, the “MMP-1/TACE IC50 selectivity ratio” value on TACE is listed as 42.4.
For `Cc1ccccc1COc1ccc(S(=O)(=O)N2CCN[C@@H](C)[C@@H]2C(=O)NO)cc1` the same measures were 0.019 µM, 10.6 µM, 0.018 µM and 558.
On the same counts, the results for `C[C@@H]1O[C@@H](CO)CN(S(=O)(=O)c2ccc(OCc3ccc(F)cc3)cc2)[C@H]1C(=O)NO` are 0.0045 µM, 1.4 µM, 0.001 µM and 311.
For the compound `C[C@@H]1NCCN(S(=O)(=O)c2ccc(OCc3ccccc3)cc2)[C@H]1C(=O)NO`, the IC50 came to 0.025 µM on TACE, 7.48 µM against MMP-1 and 0.008 µM at MMP-13. For the same compound, the “MMP-1/TACE IC50 selectivity ratio” value at TACE is 299.
Turning to `CC(=O)N1CCN(S(=O)(=O)c2ccc(OCc3ccccc3C)cc2)[C@@H](C(=O)NO)[C@@H]1C`, the IC50 on TACE stood at 0.0062 µM; at MMP-1, 1.6 µM; against MMP-13, 0.003 µM. Besides, the “MMP-1/TACE IC50 selectivity ratio” value at TACE turned out to be 258.
